Publication PMC11648822, “Lactam Truncation Yields a Dihydroquinazolinone Scaffold with Potent Antimalarial Activity that Targets PfATP4” (Chemmedchem, 2024)
pEC50: −log10 of the molar value. In brackets after ≈: the same amount, converted by molar mass. Marks after values point to notes of the source that are not given here.

Tests used:
[1] = tested on: P. falciparum (Pf) 3D7 parasites; assay: P. falciparum LDH viability assay; format: cell-based; details: Plasmodium falciparum, 3D7, 72 h, LDH activity at 72 h; mean and SD of 3 independent experiments
From the text: This assay is a platform assay conducted at the Walter and Eliza Hall Institute and uses a protocol previously decsribed.[30, 31]

eLogD shake-flask method = format: physicochemical
From the text: (§1) Human liver microsome stability, rat hepatocyte stability, aqueous solubility and eLogD are platform assays conducted by TCG Lifesciences and undertaken using previously described protocols.[10]

[2] = Human liver microsome stability; format: in vitro ADME; details: human liver microsomes; for microsomal CLint: read-out: HLM CLint
From the text: as §1

Rat hepatocyte stability = format: in vitro ADME; details: rat hepatocytes; for hepatocyte CLint: read-out: Rat Hep CLint
From the text: as §1

[3] = Aqueous solubility (pH 7.4); format: physicochemical
From the text: as §1

[4] = Human HepG2 cytotoxicity assay (Cell Titre Glo); format: cell-based; details: HepG2 cells, growth inhibition at 48 h, 4 replicate experiments, read-out: HepG2 CC50 (SD)
From the text: This assay uses Cell TitreGlo as a metabolic maker for human HepG2 cell growth and uses a protocol previously described.[32]

[5] = biological target: T1, PfATP4 (membranes prepared from 3D7 parasites) (Plasmodium falciparum, UniProt A0A143ZZK9); assay: PfATP4 Na+ assay (membrane ATPase), 3D7 membranes; format: biochemical, P. falciparum; details: 50 nM; any of the conditions tested; negative control
T1 construct: The membranes were prepared from isolated trophozoite‐stage 3D7 parasites; endogenous in cells; host or cells: P. falciparum 3D7 trophozoites (membrane preparation)
Experimental: Figure 4 Dihydroquinazolinone analogs 14 and 36 (WJM062) inhibit Na^+‐ATPase activity in membranes prepared from isolated P. falciparum parasites, consistent with them being PfATP4 inhibitors. (A) The effects of dihydroquinazolinone compounds (2 μM), dihydroartemisinin (DHA; 50 nM; negative control) and 0.2 % v/v DMSO (solvent‐only control) on membrane ATPase activity under high‐[Na^+] conditions (152 mM Na^+) and low‐[Na^+] conditions (2 mM Na^+; stemming from the addition of 1 mM Na2ATP) in the presence and absence of the PfATP4 inhibitor cipargamin (50 nM). The membranes were prepared from isolated trophozoite‐stage 3D7 parasites. The Pi produced is expressed as a percentage of that measured in the 152 mM Na^+ Control. The data are from four independent experiments performed with different membrane preparations; the symbols show the data from individual experiments and the bars show the mean (+SEM). In individual experiments, the Pi produced in the 152 mM Na^+ Control varied from 66 to 96 nmol per mg (total) protein per min. A repeated measures ANOVA with a post hoc Tukey test was used to compare the (pre‐normalised) data for different compounds and conditions. For comparisons between different conditions for the same test compound (or for the Control), significant differences are shown with black asterisks. For comparisons between the Control and a compound under the same test condition, significant differences are shown with coloured asterisks (in this case, grey asterisks, as the only significant differences were between the control and the dihydroquinazolinone compounds in the 152 mM Na^+ condition). ***P<0.001. (B) Concentration‐dependence of the effects of dihydroquinazolinone compounds on PfATP4‐associated ATPase activity in membranes prepared from 3D7 parasites. The data are the mean (shown + or − SEM) obtained from four independent experiments performed with different membrane preparations, with the exception of the lowest and second‐lowest concentrations of the compounds, for which data are from two and three independent experiments, respectively. (C and D) Potency of dihydroquinazolinone compounds against PfATP4‐associated ATPase activity in membranes prepared from Dd2‐Polδ‐PfATP4^G358S parasites (open triangles) and their Dd2‐Polδ parents (closed triangles). The data are the mean (shown + or − SEM) from four (C) or three (D) independent experiments. In B−D, the Pi production measured in the low‐[Na^+] (2 mM) condition was subtracted from that measured in high‐[Na^+] (152 mM) in the presence of each of the different concentrations of dihydroquinazolinone compounds to calculate the PfATP4‐associated ATPase activity. The PfATP4‐associated ATPase activity is expressed as a percentage of that obtained for the high‐[Na^+] (152 mM) Control.
Membrane ATPase assays were performed using a PiColorLock Gold Phosphate Detection System (Innova Biosciences), essentially as described previously.[25] Membranes were prepared either from isolated 3D7 trophozoites or from isolated Dd2‐Polδ‐PfATP4^G358S [22] and Dd2‐Polδ trophozoites.[26]

[6] = aqueous medium at pH 7.4, pH 7.4, aqueous buffer
[7] = aqueous medium (pH 7.4; buffer not named), pH 7.4, aqueous buffer
[8] = aqueous medium at pH 7.4 (buffer not named), pH 7.4, aqueous buffer

T1 sequence (A0A143ZZK9 whole entry): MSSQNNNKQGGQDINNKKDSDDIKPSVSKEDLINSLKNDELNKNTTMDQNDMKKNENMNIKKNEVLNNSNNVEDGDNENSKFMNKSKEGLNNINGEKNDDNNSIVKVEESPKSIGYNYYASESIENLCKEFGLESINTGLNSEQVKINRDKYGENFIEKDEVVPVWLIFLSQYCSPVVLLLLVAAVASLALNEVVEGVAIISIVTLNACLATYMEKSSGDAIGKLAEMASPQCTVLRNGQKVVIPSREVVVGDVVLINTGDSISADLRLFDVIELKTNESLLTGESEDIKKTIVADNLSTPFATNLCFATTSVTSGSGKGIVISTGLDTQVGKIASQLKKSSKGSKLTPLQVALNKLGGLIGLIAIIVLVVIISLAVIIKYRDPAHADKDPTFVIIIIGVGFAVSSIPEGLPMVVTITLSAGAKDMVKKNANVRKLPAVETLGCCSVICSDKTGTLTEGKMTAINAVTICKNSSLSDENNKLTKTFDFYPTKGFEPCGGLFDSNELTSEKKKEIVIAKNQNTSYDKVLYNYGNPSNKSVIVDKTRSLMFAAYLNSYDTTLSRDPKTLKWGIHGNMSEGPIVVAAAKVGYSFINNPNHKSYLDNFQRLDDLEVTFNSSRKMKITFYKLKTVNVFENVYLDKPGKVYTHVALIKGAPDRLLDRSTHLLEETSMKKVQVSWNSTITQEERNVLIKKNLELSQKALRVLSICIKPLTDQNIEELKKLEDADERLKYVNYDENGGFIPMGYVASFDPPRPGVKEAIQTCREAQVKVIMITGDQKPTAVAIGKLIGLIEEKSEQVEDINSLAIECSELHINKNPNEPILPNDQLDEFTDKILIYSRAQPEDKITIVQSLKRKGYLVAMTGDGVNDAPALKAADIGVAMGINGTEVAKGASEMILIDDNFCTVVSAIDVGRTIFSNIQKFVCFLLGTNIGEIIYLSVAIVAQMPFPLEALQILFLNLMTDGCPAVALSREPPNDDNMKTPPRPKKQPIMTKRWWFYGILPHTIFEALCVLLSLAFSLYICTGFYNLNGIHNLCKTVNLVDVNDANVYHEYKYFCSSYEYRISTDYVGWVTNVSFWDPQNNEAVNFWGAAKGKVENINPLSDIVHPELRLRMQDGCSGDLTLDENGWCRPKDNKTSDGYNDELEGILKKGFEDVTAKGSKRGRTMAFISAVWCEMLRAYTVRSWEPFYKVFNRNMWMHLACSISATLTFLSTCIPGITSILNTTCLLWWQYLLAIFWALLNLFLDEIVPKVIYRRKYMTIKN

Compound | pEC50 [1] | microsomal CLint [2] [µL/min/mg] | hepatocyte CLint (Rat hepatocyte stability) [µL/min/1e6 cells] | CC50 at 48 h [4] [µM] | further results
COc1ccc2c(c1)NC(C)(C(=O)Nc1cncc(Cl)c1)N(C)C2=O (stereo not drawn) [Compound 34, N‐(5‐Chloropyridin‐3‐yl)‐7‐methoxy‐2,3‐dimethyl‐4‐oxo‐1,2,3,4‐tetrahydroquinazoline‐2‐carboxamide] | 7.13 | 35 | 16 |  | logD (eLogD shake-flask method): 2.7; solubility [3, 6]: 13.5 µM (≈ 4.87 µg/mL)
CN1c2cc(Cl)ccc2C(=O)N(C2CC2)C1(C)C(=O)Nc1cncc(Cl)c1 (stereo not drawn) [Compound 17, 7‐Chloro‐N‐(5‐chloropyridin‐3‐yl)‐3‐cyclopropyl‐1,2‐dimethyl‐4‐oxo‐1,2,3,4‐tetrahydroquinazoline‐2‐carboxamide] | 7.64 | 267 | 47 | > 40 | eLogD (eLogD shake-flask method): 3.2^[d]; solubility [3, 7]: 28 µM (≈ 11.3 µg/mL)
CN1C(=O)c2ccc3cccnc3c2NC1(C)C(=O)Nc1cncc(Cl)c1 (stereo not drawn) [Compound 25, N‐(5‐Chloropyridin‐3‐yl)‐2,3‐dimethyl‐4‐oxo‐1,2,3,4‐tetrahydropyrido[3,2‐h]quinazoline‐2‐carboxamide] | 6.66 |  |  | > 40 | 
COc1cnc2c(c1)NC(C)(C(=O)Nc1cncc(Cl)c1)N(C)C2=O (stereo not drawn) [Compound 35, N‐(5‐Chloropyridin‐3‐yl)‐7‐methoxy‐2,3‐dimethyl‐4‐oxo‐1,2,3,4‐tetrahydropyrido[3,2‐d]pyrimidine‐2‐carboxamide] | 6.34 |  |  | > 40 | 
CN1C(=O)c2ccc(Cl)cc2N2CCCC12C(=O)Nc1cccc(Cl)c1 (stereo not drawn) [Compound 18, 8‐Chloro‐N‐(3‐chlorophenyl)‐4‐methyl‐5‐oxo‐2,3,4,5‐tetrahydropyrrolo[1,2‐a]quinazoline‐3a(1H)‐carboxamide] | 7.52 |  |  | > 40 | 
CC1(C(=O)Nc2cncc(Cl)c2)Nc2cc(Cl)ccc2C(=O)N1C1CC1 (stereo not drawn) [Compound 16, 7‐Chloro‐N‐(5‐chloropyridin‐3‐yl)‐3‐cyclopropyl‐2‐methyl‐4‐oxo‐1,2,3,4‐tetrahydroquinazoline‐2‐carboxamide] | 7.57 | 172 | 33 | > 40 | eLogD (eLogD shake-flask method): 3.3^[d]; solubility [3, 7]: 7 µM (≈ 2.74 µg/mL)
CN1C(=O)c2ccc3ncccc3c2NC1(C)C(=O)Nc1cncc(Cl)c1 (stereo not drawn) [Compound 26, N‐(5‐Chloropyridin‐3‐yl)‐2,3‐dimethyl‐4‐oxo‐1,2,3,4‐tetrahydropyrido[2,3‐h]quinazoline‐2‐carboxamide] | 7.05 |  |  | > 40 | 
CN1C(=O)c2ccc(-c3cnn(C)c3)cc2NC1(C)C(=O)Nc1cncc(Cl)c1 (stereo not drawn) [Compound 32, N‐(5‐Chloropyridin‐3‐yl)‐2,3‐dimethyl‐7‐(1‐methyl‐1H‐pyrazol‐4‐yl)‐4‐oxo‐1,2,3,4‐tetrahydroquinazoline‐2‐carboxamide] | 6.70 | 34 | 5 | > 40 | eLogD (eLogD shake-flask method): 2.9^[d]; solubility [3, 6]: 7 µM (≈ 2.88 µg/mL)
CN1C(=O)c2ccc(Cl)cc2N(C)C1(C)C(=O)Nc1cncc(Cl)c1 (stereo not drawn) [Compound 15, 7‐Chloro‐N‐(5‐chloropyridin‐3‐yl)‐1,2,3‐trimethyl‐4‐oxo‐1,2,3,4‐tetrahydroquinazoline‐2‐carboxamide] | 7.33 |  |  | > 40 | 
7‐Chloro‐N‐(5‐chloropyridin‐3‐yl)‐3‐methyl‐2‐(3‐morpholino‐3‐oxopropyl)‐4‐oxo‐1,2,3,4‐tetrahydroquinazoline‐2‐carboxamide [Compound 21] |  |  |  |  | HLM CLint [2]: 95 µL/min/mg; Rat Hep CLint (Rat hepatocyte stability): 23 μL/min/10^6 cells; solubility ([3]; pH 7.4): 41 µM
CC1(C(=O)Nc2cncc(Cl)c2)Nc2cc(Cl)ccc2C2=NCCN21 (stereo not drawn) [Compound 28, 8‐Chloro‐N‐(5‐chloropyridin‐3‐yl)‐5‐methyl‐2,3,5,6‐tetrahydroimidazo[1,2‐c]quinazoline‐5‐carboxamide] |  | 37 | 8.8 |  | logD (eLogD shake-flask method): 2.5; solubility [3, 8]: > 200 µM
7‐Chloro‐N‐(5‐chloropyridin‐3‐yl)‐3‐methyl‐4‐oxo‐2‐(3‐oxo‐3‐(piperazin‐1‐yl)propyl)‐1,2,3,4‐tetrahydroquinazoline‐2‐carboxamide [Compound 22] |  |  |  |  | eLogD (eLogD shake-flask method): 1.7^[d]; HLM CLint [2]: 94 µL/min/mg; Rat Hep CLint (Rat hepatocyte stability): 7.7 μL/min/10^6 cells; solubility ([3]; pH 7.4): 178 µM
CC1(C(=O)Nc2cncc(Cl)c2)Nc2cc(Cl)ccc2-c2nccn21 (stereo not drawn) [Compound 27, 8‐Chloro‐N‐(5‐chloropyridin‐3‐yl)‐5‐methyl‐5,6‐dihydroimidazo[1,2‐c]quinazoline‐5‐carboxamide] | 7.27 | 110 | 59 | > 40 | logD (eLogD shake-flask method): 2.7; solubility [3, 8]: 84 µM (≈ 31.4 µg/mL)
CN1C(=O)c2ccc(Cl)cc2NC1C(=O)Nc1cccc(Cl)c1 (stereo not drawn) [Compound 19, 7‐Chloro‐N‐(3‐chlorophenyl)‐3‐methyl‐4‐oxo‐1,2,3,4‐tetrahydroquinazoline‐2‐carboxamide] | 7.10 |  |  | > 40 | 
CN1C(=O)c2ccc(-c3cccnc3)cc2NC1(C)C(=O)Nc1cncc(Cl)c1 (stereo not drawn) [Compound 29, N‐(5‐Chloropyridin‐3‐yl)‐2,3‐dimethyl‐4‐oxo‐7‐(pyridin‐3‐yl)‐1,2,3,4‐tetrahydroquinazoline‐2‐carboxamide] | 6.83 |  |  | > 40 | 
CN1C(=O)c2ccc(-c3ccn(C)n3)cc2NC1(C)C(=O)Nc1cncc(Cl)c1 (stereo not drawn) [Compound 31, N‐(5‐Chloropyridin‐3‐yl)‐2,3‐dimethyl‐7‐(1‐methyl‐1H‐pyrazol‐3‐yl)‐4‐oxo‐1,2,3,4‐tetrahydroquinazoline‐2‐carboxamide] | 6.09 |  |  | > 40 | 
CCN1c2cc(Cl)ccc2C(=O)N(C)C1(C)C(=O)Nc1cccc(Cl)c1 (stereo not drawn) [Compound 13, 7‐Chloro‐N‐(3‐chlorophenyl)‐1‐ethyl‐2,3‐dimethyl‐4‐oxo‐1,2,3,4‐tetrahydroquinazoline‐2‐carboxamide] | 7.28 |  |  | > 40 | 
COc1ccc(-c2ccc3c(c2)NC(C)(C(=O)Nc2cncc(Cl)c2)N(C)C3=O)cn1 (stereo not drawn) [Compound 30, N‐(5‐Chloropyridin‐3‐yl)‐7‐(6‐methoxypyridin‐3‐yl)‐2,3‐dimethyl‐4‐oxo‐1,2,3,4‐tetrahydroquinazoline‐2‐carboxamide] | 6.84 |  |  | > 40 | 
CN1C(=O)c2ccc(Cl)cc2N(C)C1(C)C(=O)Nc1cccc(Cl)c1 (stereo not drawn) [Compound 12, 7‐Chloro‐N‐(3‐chlorophenyl)‐1,2,3‐trimethyl‐4‐oxo‐1,2,3,4‐tetrahydroquinazoline‐2‐carboxamide] | 6.94 | 122 | 124 | > 40 | eLogD (eLogD shake-flask method): 3.9^[d]; solubility [3, 7]: 2.6 µM (≈ 0.983 µg/mL); solubility [3, 8]: < 5.2 µM
C[C@H]1[C@@H](O)O[C@@H]2O[C@@]3(C)CC[C@H]4[C@H](C)CC[C@@H]1[C@@]24OO3 [dihydroartemisinin, reference compound] |  |  |  |  | effect on membrane ATPase activity [5]: no effect
7‐Chloro‐N‐(5‐chloropyridin‐3‐yl)‐3‐methyl‐2‐(3‐(4‐methylpiperazin‐1‐yl)‐3‐oxopropyl)‐4‐oxo‐1,2,3,4‐tetrahydroquinazoline‐2‐carboxamide [Compound 23] |  |  |  |  | eLogD (eLogD shake-flask method): 2.8^[d]; HLM CLint [2]: 155 µL/min/mg; Rat Hep CLint (Rat hepatocyte stability): 16 μL/min/10^6 cells; solubility ([3]; pH 7.4): 9.6 µM
